Laboratory results taken from patent US8415469B2, “Compounds and methods for kinase modulation, and indications therefor” (Plexxikon Inc., priority 2005, dated 2013).
pIC50: −log10 of the molar value. One block for each compound: values may come before it.

Key:
Type in all cases: biochemical
Btk = target: T1, Btk (Homo sapiens, UniProt Q06187); assay: Z'-Lyte FRET kinase assay (Invitrogen), Btk; conditions: read-out: IC50, activity toward kinase Btk
T1 construct: purchased Invitrogen (assay run by Invitrogen)

Ret = target: T2, Ret (Homo sapiens, UniProt P07949); assay: AlphaScreen kinase assay, Ret; conditions: read-out: IC50, activity toward kinase Ret
T2 construct: P1378.pET-SF BI-PTP RET H661-R1012 HIS; made in house
T2 sequence (P07949 with tags, fused parts or gaps): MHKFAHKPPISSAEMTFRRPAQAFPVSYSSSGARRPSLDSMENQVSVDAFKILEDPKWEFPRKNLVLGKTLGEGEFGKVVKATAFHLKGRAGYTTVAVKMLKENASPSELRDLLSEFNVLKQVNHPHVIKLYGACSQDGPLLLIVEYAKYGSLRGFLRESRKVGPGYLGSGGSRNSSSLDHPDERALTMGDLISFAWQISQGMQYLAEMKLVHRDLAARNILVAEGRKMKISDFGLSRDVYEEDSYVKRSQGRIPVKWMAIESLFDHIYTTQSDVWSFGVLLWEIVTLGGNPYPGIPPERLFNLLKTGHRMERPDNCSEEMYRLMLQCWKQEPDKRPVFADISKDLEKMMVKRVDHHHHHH

Stk6 = target: T3, Stk6 (Homo sapiens, UniProt O14965); assay: Z'-Lyte FRET kinase assay (Invitrogen), Stk6; conditions: read-out: IC50, activity toward kinase Stk6
T3 construct: purchased Invitrogen (Carlsbad, Calif.), screening service
T3 sequence (O14965 1-403): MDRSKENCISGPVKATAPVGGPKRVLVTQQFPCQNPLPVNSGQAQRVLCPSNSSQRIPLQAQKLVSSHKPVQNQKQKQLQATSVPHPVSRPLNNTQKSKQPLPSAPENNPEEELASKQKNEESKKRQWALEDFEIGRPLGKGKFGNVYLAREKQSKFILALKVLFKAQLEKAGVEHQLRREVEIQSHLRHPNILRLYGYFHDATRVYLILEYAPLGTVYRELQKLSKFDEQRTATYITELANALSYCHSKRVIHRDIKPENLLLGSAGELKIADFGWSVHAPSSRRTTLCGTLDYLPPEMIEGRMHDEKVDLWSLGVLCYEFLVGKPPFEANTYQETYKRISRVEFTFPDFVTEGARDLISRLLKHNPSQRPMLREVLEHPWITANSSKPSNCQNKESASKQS

Gsk3β = Gsk3β (Homo sapiens, UniProt P49841); assay: AlphaScreen kinase assay, Gsk3β; conditions: read-out: IC50, activity toward kinase Gsk3β
Sequence of Gsk3β (P49841 whole entry): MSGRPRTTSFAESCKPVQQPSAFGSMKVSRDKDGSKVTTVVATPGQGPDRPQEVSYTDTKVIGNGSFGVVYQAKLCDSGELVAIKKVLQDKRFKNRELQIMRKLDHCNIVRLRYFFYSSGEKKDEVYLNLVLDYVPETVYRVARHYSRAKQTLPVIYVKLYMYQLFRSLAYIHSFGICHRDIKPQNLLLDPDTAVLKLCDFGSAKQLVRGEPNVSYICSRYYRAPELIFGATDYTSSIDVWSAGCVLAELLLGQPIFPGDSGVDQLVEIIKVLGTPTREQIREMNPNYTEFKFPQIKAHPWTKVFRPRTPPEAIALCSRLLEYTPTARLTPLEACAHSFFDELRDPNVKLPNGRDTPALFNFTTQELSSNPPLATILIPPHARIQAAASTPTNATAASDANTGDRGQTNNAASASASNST
Text: AlphaScreen assay was used to screen additional kinases. The assay is similarly dependent on the phosphorylation of a peptide substrate. In this assay, an antibody that recognizes phosphorylated substrate is bound to an acceptor bead. The peptide substrate is attached to biotin, which binds to a donor head that contains streptavidin. Thus phosphorylated substrate is bound by antibody and streptavidin, bringing the donor and acceptor heads into close proximity when kinase is not inhibited. The donor produces singlet oxygen which results in emission from the acceptor when they are in close proximity. Conversely, when kinase is inhibited, the donor and acceptor beads are not associated and the emission from the acceptor is reduced.
AlphaScreen assays were done using compounds dissolved in DMSO to a concentration of 20 mM. The compounds were diluted accordingly to the desired final concentrations in each sample well, using 1:3 serial dilution for a total of 8 concentration points.

FGFR1 = target: T4, FGFR1 (Homo sapiens, UniProt P11362, C488A/C584S); assay: AlphaScreen kinase assay, FGFR1; conditions: read-out: IC50, activity toward kinase FGFR
T4 construct: P1351.pET N6 BI-PTP FGFR A458-E765-X C488A, C584S; made in house; host or cells: E. coli (PTP1B co-expressed)
T4 sequence (P11362 458-765 C488A/C584S): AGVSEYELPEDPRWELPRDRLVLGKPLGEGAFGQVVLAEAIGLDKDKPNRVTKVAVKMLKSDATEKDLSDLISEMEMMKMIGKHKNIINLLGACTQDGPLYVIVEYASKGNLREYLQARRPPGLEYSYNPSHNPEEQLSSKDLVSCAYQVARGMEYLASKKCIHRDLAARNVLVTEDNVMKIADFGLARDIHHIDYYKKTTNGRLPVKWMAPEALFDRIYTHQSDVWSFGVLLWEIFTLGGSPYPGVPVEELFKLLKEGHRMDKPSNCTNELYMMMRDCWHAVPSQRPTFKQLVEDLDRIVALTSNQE

Kdr = target: T5, Kdr (Homo sapiens, UniProt P35968); assay: Z'-Lyte FRET kinase assay (Invitrogen), Kdr; conditions: read-out: IC50, activity toward kinase Kdr
T5 construct: purchased Invitrogen (assay run by Invitrogen)
T5 sequence (P35968 20-1356): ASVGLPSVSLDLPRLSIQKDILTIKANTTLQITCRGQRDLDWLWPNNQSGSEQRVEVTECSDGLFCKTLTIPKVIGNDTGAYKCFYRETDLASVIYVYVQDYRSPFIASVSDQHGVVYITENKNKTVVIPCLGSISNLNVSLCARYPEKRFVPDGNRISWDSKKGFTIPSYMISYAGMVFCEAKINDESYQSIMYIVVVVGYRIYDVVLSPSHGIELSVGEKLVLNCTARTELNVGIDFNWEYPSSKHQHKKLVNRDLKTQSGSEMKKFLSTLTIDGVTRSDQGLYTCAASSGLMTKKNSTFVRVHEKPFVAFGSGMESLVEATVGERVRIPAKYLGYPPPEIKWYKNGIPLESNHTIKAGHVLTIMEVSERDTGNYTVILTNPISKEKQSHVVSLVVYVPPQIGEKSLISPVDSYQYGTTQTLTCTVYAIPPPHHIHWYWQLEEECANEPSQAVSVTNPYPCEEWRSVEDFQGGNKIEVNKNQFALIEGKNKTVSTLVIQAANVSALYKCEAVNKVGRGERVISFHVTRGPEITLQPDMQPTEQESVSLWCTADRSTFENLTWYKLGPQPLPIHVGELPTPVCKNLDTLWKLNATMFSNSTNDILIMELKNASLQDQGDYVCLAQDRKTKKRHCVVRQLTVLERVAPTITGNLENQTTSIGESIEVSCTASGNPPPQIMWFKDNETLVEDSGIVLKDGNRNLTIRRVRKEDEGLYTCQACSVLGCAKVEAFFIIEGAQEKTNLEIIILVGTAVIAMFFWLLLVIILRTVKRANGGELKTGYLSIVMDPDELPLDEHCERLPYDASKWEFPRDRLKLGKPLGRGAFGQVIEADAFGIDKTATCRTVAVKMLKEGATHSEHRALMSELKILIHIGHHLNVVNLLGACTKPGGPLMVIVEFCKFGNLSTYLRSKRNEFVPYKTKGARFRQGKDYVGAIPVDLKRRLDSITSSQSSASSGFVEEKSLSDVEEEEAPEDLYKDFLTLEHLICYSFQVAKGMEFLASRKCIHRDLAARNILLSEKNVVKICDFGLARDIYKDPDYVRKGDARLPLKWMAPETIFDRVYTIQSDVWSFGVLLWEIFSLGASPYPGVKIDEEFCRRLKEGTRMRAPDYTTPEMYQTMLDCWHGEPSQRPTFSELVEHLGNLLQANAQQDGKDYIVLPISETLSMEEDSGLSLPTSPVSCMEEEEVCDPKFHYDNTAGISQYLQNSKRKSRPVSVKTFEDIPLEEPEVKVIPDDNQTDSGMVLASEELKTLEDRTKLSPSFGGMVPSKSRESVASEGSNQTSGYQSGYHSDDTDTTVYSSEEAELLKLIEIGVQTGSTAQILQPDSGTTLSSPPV

MAP2K1 = target: T6, MAP2K1 (Homo sapiens, UniProt Q02750); assay: Z'-Lyte FRET kinase assay (Invitrogen), MAP2K1; conditions: read-out: IC50, activity toward kinase MAP2K1
T6 construct: purchased Invitrogen (assay run by Invitrogen)
T6 sequence (Q02750 whole entry): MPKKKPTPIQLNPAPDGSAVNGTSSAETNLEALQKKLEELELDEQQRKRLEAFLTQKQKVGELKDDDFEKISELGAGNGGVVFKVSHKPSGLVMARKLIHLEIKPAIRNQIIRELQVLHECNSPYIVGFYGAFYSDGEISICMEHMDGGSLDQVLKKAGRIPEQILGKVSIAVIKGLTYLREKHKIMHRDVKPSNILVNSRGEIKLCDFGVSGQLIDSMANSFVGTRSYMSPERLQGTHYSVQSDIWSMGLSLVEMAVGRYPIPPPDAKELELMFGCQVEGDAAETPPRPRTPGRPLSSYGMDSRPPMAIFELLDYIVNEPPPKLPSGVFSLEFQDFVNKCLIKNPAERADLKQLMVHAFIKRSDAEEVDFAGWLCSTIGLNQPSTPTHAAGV

Met = target: T7, Met (Homo sapiens, UniProt P08581); assay: AlphaScreen kinase assay, Met; conditions: read-out: IC50, activity toward kinase Met
T7 construct: P1818.pETN6 BI-PTP MET G1056-G1364-X WT; His6 (N); made in house; host or cells: E. coli (PTP1B co-expressed)
Method in brief: (§1)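 Kinase activity was measured as phosphorylation of a biotinylated peptide, detected with streptavidin donor and phospho-antibody acceptor beads. Compounds, from 20 mM DMSO stocks, were tested at eight concentrations in 1:3 serial dilution.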

B-Raf V600E = target: T8, B-Raf V600E (Homo sapiens, UniProt P15056, V600E); assay: AlphaScreen kinase assay, B-Raf V600E; conditions: read-out: IC50, activity toward kinase B-Raf V600E
T8 construct: P4254. pFastBacBD-CDC37 BRAF D437-K722-X, V600E; His6 with pFastBac HT leader (TEV site) (N); made in house; host or cells: Sf9 (baculovirus; chaperone CDC37 co-expressed)
T8 sequence (P15056 with tags, fused parts or gaps V600E): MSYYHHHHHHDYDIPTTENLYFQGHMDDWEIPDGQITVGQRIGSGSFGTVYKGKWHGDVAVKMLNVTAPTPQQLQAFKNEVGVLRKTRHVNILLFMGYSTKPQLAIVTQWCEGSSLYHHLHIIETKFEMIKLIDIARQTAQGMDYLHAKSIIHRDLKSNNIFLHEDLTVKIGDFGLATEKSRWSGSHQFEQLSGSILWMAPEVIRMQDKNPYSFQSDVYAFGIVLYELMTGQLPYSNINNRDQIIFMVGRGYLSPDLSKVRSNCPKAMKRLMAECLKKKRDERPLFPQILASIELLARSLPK

Fms = target: T9, Fms (Homo sapiens, UniProt P07333); assay: AlphaScreen kinase assay, Fms; conditions: read-out: IC50, activity toward kinase Fms
T9 construct: purchased Upstate Biotechnology

Kit = target: T10, Kit (Homo sapiens, UniProt P10721); assay: AlphaScreen kinase assay, Kit; conditions: read-out: IC50, activity toward kinase Kit
T10 construct: P1332.N6 BI PTP KIT M552-K948-X COD; His6 (N); made in house; host or cells: E. coli (PTP1B co-expressed)
T10 sequence (P10721 with tags, fused parts or gaps): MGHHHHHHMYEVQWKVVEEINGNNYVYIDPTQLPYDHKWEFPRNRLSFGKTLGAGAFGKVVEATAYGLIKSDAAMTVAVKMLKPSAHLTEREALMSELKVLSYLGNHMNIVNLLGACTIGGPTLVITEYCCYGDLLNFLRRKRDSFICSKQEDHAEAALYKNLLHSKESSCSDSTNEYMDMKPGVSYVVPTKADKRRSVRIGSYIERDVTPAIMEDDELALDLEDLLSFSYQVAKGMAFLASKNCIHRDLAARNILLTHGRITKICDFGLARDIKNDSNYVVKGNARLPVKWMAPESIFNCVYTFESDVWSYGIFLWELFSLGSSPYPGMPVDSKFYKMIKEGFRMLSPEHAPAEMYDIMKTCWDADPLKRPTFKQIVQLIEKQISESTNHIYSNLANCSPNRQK

Src = target: T11, Src (Homo sapiens, UniProt P12931); assay: AlphaScreen kinase assay, Src; conditions: read-out: IC50, activity toward kinase Src
T11 construct: P1144. pET-N6 BI-PTP SRC V86-L536-X; made in house
T11 sequence (P12931 with tags, fused parts or gaps): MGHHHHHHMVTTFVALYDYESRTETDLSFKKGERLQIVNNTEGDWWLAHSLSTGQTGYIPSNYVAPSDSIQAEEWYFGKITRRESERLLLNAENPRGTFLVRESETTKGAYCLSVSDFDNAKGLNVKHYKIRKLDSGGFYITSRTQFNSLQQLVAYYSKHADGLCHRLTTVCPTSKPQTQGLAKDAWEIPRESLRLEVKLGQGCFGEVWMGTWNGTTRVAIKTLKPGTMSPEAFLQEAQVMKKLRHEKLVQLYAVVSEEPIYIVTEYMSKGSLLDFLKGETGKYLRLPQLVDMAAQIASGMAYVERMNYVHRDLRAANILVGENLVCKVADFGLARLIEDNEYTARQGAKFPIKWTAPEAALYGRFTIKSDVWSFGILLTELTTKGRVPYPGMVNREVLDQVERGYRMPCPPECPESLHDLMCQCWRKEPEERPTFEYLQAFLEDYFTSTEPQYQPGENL

Yes = target: T12, Yes (Homo sapiens, UniProt P07947); assay: Z'-Lyte FRET kinase assay (Invitrogen), Yes; conditions: read-out: IC50, activity toward kinase Yes
T12 construct: purchased Invitrogen (Carlsbad, Calif.), screening service
Method in brief: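 Inhibition was inferred from protease cleavage of non-phosphorylated peptide, measured as a coumarin/fluorescein ratio. Kinase reactions used 10 μM ATP for 1 h at room temperature.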

MAP4K4 = MAP4K4 (Homo sapiens, UniProt O95819); assay: AlphaScreen kinase assay, MAP4K4; conditions: read-out: IC50, activity toward kinase MAP4K4
Sequence of MAP4K4 (O95819 whole entry): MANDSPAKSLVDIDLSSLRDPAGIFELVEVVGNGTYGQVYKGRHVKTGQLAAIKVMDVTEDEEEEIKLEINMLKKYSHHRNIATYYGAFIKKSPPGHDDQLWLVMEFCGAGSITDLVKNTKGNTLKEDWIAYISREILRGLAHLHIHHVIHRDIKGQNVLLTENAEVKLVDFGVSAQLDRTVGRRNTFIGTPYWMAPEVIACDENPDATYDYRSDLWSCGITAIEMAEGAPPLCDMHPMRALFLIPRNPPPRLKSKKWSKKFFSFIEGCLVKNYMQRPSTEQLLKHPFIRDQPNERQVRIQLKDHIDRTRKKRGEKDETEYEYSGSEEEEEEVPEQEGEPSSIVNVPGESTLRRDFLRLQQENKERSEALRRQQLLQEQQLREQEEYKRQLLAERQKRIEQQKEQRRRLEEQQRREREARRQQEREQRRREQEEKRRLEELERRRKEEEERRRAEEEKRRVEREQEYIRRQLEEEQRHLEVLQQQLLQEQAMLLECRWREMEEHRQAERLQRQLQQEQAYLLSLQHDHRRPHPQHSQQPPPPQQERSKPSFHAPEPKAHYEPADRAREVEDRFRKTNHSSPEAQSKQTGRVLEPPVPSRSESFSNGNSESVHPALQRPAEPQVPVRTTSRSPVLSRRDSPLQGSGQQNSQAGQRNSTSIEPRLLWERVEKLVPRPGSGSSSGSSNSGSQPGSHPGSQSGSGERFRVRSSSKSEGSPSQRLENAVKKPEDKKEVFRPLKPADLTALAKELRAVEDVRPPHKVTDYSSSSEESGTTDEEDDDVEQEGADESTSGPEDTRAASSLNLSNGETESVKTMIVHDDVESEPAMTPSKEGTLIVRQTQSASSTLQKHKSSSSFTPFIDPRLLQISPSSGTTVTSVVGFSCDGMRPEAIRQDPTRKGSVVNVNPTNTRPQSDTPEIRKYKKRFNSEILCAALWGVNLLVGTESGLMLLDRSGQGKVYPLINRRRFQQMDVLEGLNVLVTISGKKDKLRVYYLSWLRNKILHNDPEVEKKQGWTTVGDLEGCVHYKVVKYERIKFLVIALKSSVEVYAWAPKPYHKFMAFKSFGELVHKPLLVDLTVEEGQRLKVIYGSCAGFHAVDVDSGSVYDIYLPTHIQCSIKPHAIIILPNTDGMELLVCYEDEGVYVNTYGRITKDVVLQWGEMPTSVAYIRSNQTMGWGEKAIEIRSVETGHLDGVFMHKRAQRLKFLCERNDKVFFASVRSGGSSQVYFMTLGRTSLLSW

Abl = target: T13, Abl (Homo sapiens, UniProt P00519); assay: AlphaScreen kinase assay, Abl; conditions: read-out: activity toward kinase Abl, IC50
T13 construct: P1121. pET-SPEC BI-PTP Abl G227-V515-X; His6 (N); made in house; host or cells: E. coli (PTP1B co-expressed)
T13 sequence (P00519 with tags, fused parts or gaps): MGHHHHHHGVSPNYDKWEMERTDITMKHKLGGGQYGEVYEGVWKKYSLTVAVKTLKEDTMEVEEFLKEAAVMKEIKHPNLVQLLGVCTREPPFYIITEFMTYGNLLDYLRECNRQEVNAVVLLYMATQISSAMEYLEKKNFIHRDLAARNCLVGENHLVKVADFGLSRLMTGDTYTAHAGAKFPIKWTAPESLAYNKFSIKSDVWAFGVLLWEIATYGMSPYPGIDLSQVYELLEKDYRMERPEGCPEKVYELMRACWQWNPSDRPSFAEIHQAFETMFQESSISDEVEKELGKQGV
Method in brief: as §1

Flt4 = target: T14, Flt4 (Homo sapiens, UniProt P35916); assay: AlphaScreen kinase assay, Flt4; conditions: read-out: IC50, activity toward kinase Flt4
T14 construct: purchased ProQinase GmbH (Freiburg, Germany)
Method in brief: as §1

B-Raf = target: T15, B-Raf (Homo sapiens, UniProt P15056); assay: AlphaScreen kinase assay, B-Raf; conditions: read-out: IC50, activity toward kinase B-Raf
T15 construct: purchased Upstate Biotechnology

c-Raf-1 = target: T16, c-Raf-1 (Homo sapiens, UniProt P04049); assay: AlphaScreen kinase assay, c-Raf-1; conditions: read-out: IC50, activity toward kinase c-Raf-1
T16 construct: purchased Upstate Biotechnology

Flt1 = target: T17, Flt1 (Homo sapiens, UniProt P17948); assay: AlphaScreen kinase assay, Flt1; conditions: read-out: IC50, activity toward kinase Flt1
T17 construct: P1826.pETN6 BI-PTP FLT1 M799-D1165-X WT; His6 (N); made in house; host or cells: E. coli (PTP1B co-expressed)
T17 sequence (P17948 with tags, fused parts or gaps): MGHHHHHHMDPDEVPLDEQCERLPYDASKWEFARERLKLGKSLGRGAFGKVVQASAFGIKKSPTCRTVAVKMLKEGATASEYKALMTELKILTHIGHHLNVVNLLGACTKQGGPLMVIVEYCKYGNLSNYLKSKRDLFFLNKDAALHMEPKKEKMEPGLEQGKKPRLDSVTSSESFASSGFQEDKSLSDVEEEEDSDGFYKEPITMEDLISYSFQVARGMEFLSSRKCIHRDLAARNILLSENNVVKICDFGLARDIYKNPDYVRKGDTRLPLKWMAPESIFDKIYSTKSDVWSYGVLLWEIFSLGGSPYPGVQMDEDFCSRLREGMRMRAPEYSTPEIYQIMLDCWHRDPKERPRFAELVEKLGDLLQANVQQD

pIC50 (Btk): ≥ 5.00
pIC50 (Ret): ≥ 5.00
pIC50 (Stk6): ≥ 5.00
pIC50 (Gsk3β): ≥ 5.00
Compound: Cc1ccccc1C(=O)c1c[nH]c2nccc(-c3cccc(/C=C/C(=O)O)c3)c12 [Compound P-0094]

pIC50 (FGFR1): ≥ 5.00
pIC50 (Kdr): ≥ 5.00
pIC50 (MAP2K1): ≥ 5.00
pIC50 (Met): ≥ 5.00
Compound: COc1cccc(C(=O)c2c[nH]c3nccc(Cl)c23)c1 [Compound P-0149]

pIC50 (B-Raf V600E): ≥ 5.00
pIC50 (Btk): ≥ 5.00
pIC50 (FGFR1): ≥ 5.00
pIC50 (Fms): ≥ 5.00
pIC50 (Kdr): ≥ 5.00
pIC50 (Kit): ≥ 5.00
pIC50 (MAP2K1): ≥ 5.00
pIC50 (Ret): ≥ 5.00
pIC50 (Src): ≥ 5.00
pIC50 (Yes): ≥ 5.00
pIC50 (MAP4K4): ≥ 5.00
Compound: COc1ccc(C(=O)c2c[nH]c3ncccc23)c(Cl)c1 [Compound P-0152]

pIC50 (Ret): ≥ 5.00
pIC50 (Gsk3β): ≥ 5.00
Compound: Cc1cc(C)cc(-c2ccnc3[nH]ccc23)c1 [Compound P-0159]

pIC50 (Abl): ≥ 5.00
pIC50 (FGFR1): ≥ 5.00
pIC50 (Flt4): ≥ 5.00
pIC50 (Kdr): ≥ 5.00
pIC50 (Kit): ≥ 5.00
pIC50 (MAP2K1): ≥ 5.00
pIC50 (Ret): ≥ 5.00
Compound: COc1cccc(C(=O)c2c[nH]c3ncc(-c4cccnc4)cc23)c1 [Compound P-0167]

pIC50 (B-Raf): ≥ 5.00
pIC50 (B-Raf V600E): ≥ 5.00
pIC50 (c-Raf-1): ≥ 5.00
pIC50 (FGFR1): ≥ 5.00
pIC50 (Flt1): ≥ 5.00
pIC50 (Fms): ≥ 5.00
pIC50 (Kdr): ≥ 5.00
pIC50 (Kit): ≥ 5.00
pIC50 (Gsk3β): ≥ 5.00
Compound: Cc1c(NS(C)(=O)=O)cccc1C(=O)c1c[nH]c2ncc(Br)cc12 [Compound P-0180, N-[3-(5-Bromo-1H-pyrrolo[2,3-b]pyridine-3-carbonyl)-2-methyl-phenyl]-methanesulfonamide]

pIC50 (FGFR1): ≥ 5.00
pIC50 (Kdr): ≥ 5.00
pIC50 (MAP2K1): ≥ 5.00
pIC50 (MAP4K4): ≥ 5.00
Compound: CS(=O)(=O)Nc1cccc(C(=O)c2c[nH]c3ncccc23)c1 [Compound P-0198]

pIC50 (Stk6): ≥ 5.00
pIC50 (Gsk3β): ≥ 5.00
Compound: Cc1ccc(-c2c(C)[nH]c3ncccc23)s1 [Compound P-0207]

pIC50 (Ret): ≥ 5.00
pIC50 (Gsk3β): ≥ 5.00
Compound: CS(=O)(=O)Nc1cccc(-c2ccnc3[nH]cc(C(=O)c4ccccc4F)c23)c1 [Compound P-0236]

pIC50 (B-Raf V600E): ≥ 5.00
pIC50 (Gsk3β): ≥ 5.00
Compound: Cc1cc(C)cc(-c2ccnc3[nH]cc(Sc4ccccc4)c23)c1 [Compound P-0252]

pIC50 (Gsk3β): ≥ 5.00
Compound: Cc1cc(C)cc(-c2ccnc3[nH]cc(Sc4ccccn4)c23)c1 [Compound P-0273]

pIC50 (Gsk3β): ≥ 5.00
Compound: Nc1cccc(-c2c(CN3CCC(C(=O)O)CC3)[nH]c3ncccc23)c1 [Compound P-0462]

pIC50 (Gsk3β): ≥ 5.00
Compound: O=[N+]([O-])c1cccc(Sc2c[nH]c3nccc(-c4cccc(C(F)(F)F)c4)c23)c1 [Compound P-0969]

pIC50 (FGFR1): ≥ 5.00
pIC50 (Gsk3β): ≥ 5.00
Compound: CC(C)(C)OC(=O)Nc1ccc(F)c(C(=O)c2c[nH]c3ncc(Br)cc23)c1F [Compound P-1142]

pIC50 (B-Raf V600E): ≥ 5.00
pIC50 (FGFR1): ≥ 5.00
pIC50 (Flt1): ≥ 5.00
pIC50 (Kit): ≥ 5.00
pIC50 (Ret): ≥ 5.00
pIC50 (Src): ≥ 5.00
pIC50 (Gsk3β): ≥ 5.00
Compound: NC(=O)c1cccc(-c2ccnc3[nH]cc(C(=O)c4ccccc4F)c23)c1 [Compound P-1181]
